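Results reflect a 48-hour exposure of cells in 96-well plates to compound at five concentrations. Here, GI50 denotes the concentration required for 50% inhibition of growth. Definition used: TGI = concentration required for complete inhibition of growth.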
Columns and labels:
Test in all cases: NCI anticancer screen, dose series, 48 h
[1] = test system: 786-0 renal
[2] = test system: A549 NSCLC
[3] = test system: ACHN renal
[4] = test system: BT-549 breast
[5] = test system: CAKI-1 renal
[6] = test system: CCRF-CEM leukemia
[7] = test system: COLO 205 colon
[8] = test system: DU-145 prostate
[9] = test system: EKVX NSCLC
[10] = test system: HCC-2998 colon
[11] = test system: HCT-116 colon
[12] = test system: HCT-15 colon
[13] = test system: HL-60(TB) leukemia
[14] = test system: HOP-62 NSCLC
[15] = test system: HOP-92 NSCLC
[16] = test system: HS 578T breast
[17] = test system: HT29 colon
[18] = test system: IGROV1 ovarian
[19] = test system: K-562 leukemia
[20] = test system: KM12 colon
[21] = test system: LOX IMVI melanoma
[22] = test system: M14 melanoma
[23] = test system: MALME-3M melanoma
[24] = test system: MCF7 breast
[25] = test system: MDA-MB-231 breast
[26] = test system: MDA-MB-435
[27] = test system: MOLT-4 leukemia
[28] = test system: NCI-H226 lung
[29] = test system: NCI-H23 lung
[30] = test system: NCI-H460 lung
[31] = test system: NCI-H522 lung
[32] = test system: NCI/ADR-RES ovarian
[33] = test system: OVCAR-3 ovarian
[34] = test system: OVCAR-4 ovarian
[35] = test system: OVCAR-5 ovarian
[36] = test system: OVCAR-8 ovarian
[37] = test system: PC-3 prostate
[38] = test system: RPMI-8226 leukemia
[39] = test system: RXF 393 renal
[40] = test system: SF-268 CNS
[41] = test system: SF-295 CNS
[42] = test system: SF-539 CNS
[43] = test system: SK-MEL-2 melanoma
[44] = test system: SK-MEL-28 melanoma
[45] = test system: SK-MEL-5 melanoma
[46] = test system: SK-OV-3 ovarian
[47] = test system: SN12C renal
[48] = test system: SNB-19 CNS
[49] = test system: SNB-75 CNS
[50] = test system: SR leukemia
[51] = test system: SW-620 colon
[52] = test system: T-47D breast
[53] = test system: TK-10 renal
[54] = test system: U251 CNS
[55] = test system: UACC-257 melanoma
[56] = test system: UACC-62 melanoma
[57] = test system: UO-31 renal
[58] = test system: A498 renal

COC(=O)Cc1ccc(Oc2nc3ccccc3nc2-c2cccs2)cc1
TGI [1]: > 100 µM
TGI [2]: > 100 µM
TGI [3]: > 100 µM
TGI [4]: > 100 µM
TGI [5]: > 100 µM
TGI [6]: > 100 µM
TGI [7]: > 100 µM
TGI [8]: > 100 µM
TGI [9]: > 100 µM
TGI [10]: > 100 µM
TGI [11]: > 100 µM
TGI [12]: > 100 µM
TGI [13]: > 100 µM
TGI [14]: > 100 µM
TGI [15]: 63.3 µM
TGI [16]: > 100 µM
TGI [17]: > 100 µM
TGI [18]: > 100 µM
TGI [19]: > 100 µM
TGI [20]: > 100 µM
TGI [21]: > 100 µM
TGI [22]: > 100 µM
TGI [23]: > 100 µM
TGI [24]: > 100 µM
TGI [25]: > 100 µM
TGI [26]: > 100 µM
TGI [27]: > 100 µM
TGI [28]: 99.8 µM
TGI [29]: > 100 µM
TGI [30]: > 100 µM
TGI [31]: > 100 µM
TGI [32]: > 100 µM
TGI [33]: > 100 µM
TGI [34]: > 100 µM
TGI [35]: > 100 µM
TGI [36]: > 100 µM
TGI [37]: > 100 µM
TGI [38]: > 100 µM
TGI [39]: 48.5 µM
TGI [40]: > 100 µM
TGI [41]: > 100 µM
TGI [42]: > 100 µM
TGI [43]: > 100 µM
TGI [44]: > 100 µM
TGI [45]: > 100 µM
TGI [46]: 92.2 µM
TGI [47]: > 100 µM
TGI [48]: > 100 µM
TGI [49]: 24.7 µM
TGI [50]: > 100 µM
TGI [51]: > 100 µM
TGI [52]: > 100 µM
TGI [53]: > 100 µM
TGI [54]: > 100 µM
TGI [55]: > 100 µM
TGI [56]: > 100 µM
TGI [57]: > 100 µM

C=C(C)[C@@H]1C/C=C(\COC(=O)[C@H](OC(C)=O)C(NC(=O)c2ccccc2)c2ccccc2)CC[C@H]2O[C@]2(C)CC/C=C(\C)CC1 (stereo not given in full)
GI50 [1]: 18.5 µM
TGI [1]: > 50 µM
GI50 [58]: 13.1 µM
TGI [58]: 44.5 µM
GI50 [3]: 14.6 µM
TGI [3]: > 50 µM
GI50 [4]: 12.9 µM
TGI [4]: 45.4 µM
GI50 [5]: 8.64 µM
TGI [5]: 17.8 µM
GI50 [7]: 11.2 µM
TGI [7]: 25.8 µM
GI50 [8]: 19.3 µM
TGI [8]: > 50 µM
GI50 [9]: 18.6 µM
TGI [9]: > 50 µM
GI50 [10]: 15.1 µM
TGI [10]: 45.4 µM
GI50 [11]: 12.3 µM
TGI [11]: 38.1 µM
GI50 [12]: 12.4 µM
TGI [12]: > 50 µM
GI50 [13]: 4.2 µM
TGI [13]: > 50 µM
GI50 [14]: 31.2 µM
TGI [14]: > 50 µM
GI50 [15]: 31.8 µM
TGI [15]: > 50 µM
GI50 [16]: 15.2 µM
TGI [16]: 49.4 µM
GI50 [17]: 13.2 µM
TGI [17]: 31.8 µM
GI50 [18]: 17.7 µM
TGI [18]: > 50 µM
GI50 [19]: 30.8 µM
TGI [19]: > 50 µM
GI50 [20]: 18.7 µM
TGI [20]: > 50 µM
GI50 [21]: 8.98 µM
TGI [21]: 19.3 µM
GI50 [22]: 20.7 µM
TGI [22]: > 50 µM
GI50 [23]: 14.3 µM
TGI [23]: 42.6 µM
GI50 [24]: 8.94 µM
TGI [24]: 22.1 µM
GI50 [25]: 12 µM
TGI [25]: > 50 µM
GI50 [26]: 16.8 µM
TGI [26]: > 50 µM
GI50 [27]: 17.6 µM
TGI [27]: > 50 µM
GI50 [28]: 21.7 µM
TGI [28]: > 50 µM
GI50 [29]: 19.3 µM
TGI [29]: > 50 µM
GI50 [30]: 15.5 µM
TGI [30]: > 50 µM
GI50 [31]: 12.1 µM
TGI [31]: > 50 µM
GI50 [32]: 18.1 µM
TGI [32]: > 50 µM
GI50 [33]: 12.2 µM
TGI [33]: 44.5 µM
GI50 [34]: 15.4 µM
TGI [34]: > 50 µM
GI50 [35]: 32.1 µM
TGI [35]: > 50 µM
GI50 [36]: 37.7 µM
TGI [36]: > 50 µM
GI50 [37]: 13.3 µM
TGI [37]: > 50 µM
GI50 [40]: 18.2 µM
TGI [40]: > 50 µM
GI50 [41]: 13.2 µM
TGI [41]: > 50 µM
GI50 [42]: 11.2 µM
TGI [42]: 27.1 µM
GI50 [43]: 16.7 µM
TGI [43]: > 50 µM
GI50 [44]: 16.6 µM
TGI [44]: > 50 µM
GI50 [45]: 11.8 µM
TGI [45]: 28 µM
GI50 [46]: > 50 µM
TGI [46]: > 50 µM
GI50 [47]: 10.3 µM
TGI [47]: 23 µM
GI50 [48]: 27.8 µM
TGI [48]: > 50 µM
GI50 [49]: 17.6 µM
TGI [49]: > 50 µM
GI50 [50]: 23.3 µM
TGI [50]: > 50 µM
GI50 [51]: 16.8 µM
TGI [51]: 49.7 µM
GI50 [52]: 23.1 µM
TGI [52]: > 50 µM
GI50 [53]: 18.8 µM
TGI [53]: > 50 µM
GI50 [54]: 14.9 µM
TGI [54]: > 50 µM
GI50 [55]: 23.3 µM
TGI [55]: > 50 µM
GI50 [56]: 16.8 µM
TGI [56]: > 50 µM
GI50 [57]: 20.6 µM
TGI [57]: > 50 µM

Nc1nc2cc(-c3ccc4ncc(C(=O)N5CCOCC5)n4c3)ccc2o1
GI50 [1]: 14.6 µM
TGI [1]: > 100 µM
GI50 [2]: 4.86 µM
TGI [2]: > 100 µM
GI50 [3]: 4.28 µM
TGI [3]: > 100 µM
GI50 [4]: 4.39 µM
TGI [4]: 37.9 µM
GI50 [6]: 8.74 µM
TGI [6]: > 100 µM
GI50 [7]: 3.44 µM
TGI [7]: > 100 µM
GI50 [8]: 9.09 µM
TGI [8]: > 100 µM
GI50 [9]: 4.26 µM
TGI [9]: > 100 µM
GI50 [10]: 10 µM
TGI [10]: > 100 µM
GI50 [11]: 4.4 µM
TGI [11]: > 100 µM
GI50 [12]: 5.4 µM
TGI [12]: > 100 µM
GI50 [13]: 2.95 µM
TGI [13]: 60.9 µM
GI50 [14]: 4.23 µM
TGI [14]: 49.3 µM
GI50 [15]: 1.35 µM
TGI [15]: 9.53 µM
GI50 [16]: 3.36 µM
TGI [16]: 30 µM
GI50 [17]: 3.52 µM
TGI [17]: > 100 µM
GI50 [18]: 1.74 µM
TGI [18]: 6.6 µM
GI50 [19]: 47 µM
TGI [19]: > 100 µM
GI50 [20]: 14.4 µM
TGI [20]: > 100 µM
GI50 [21]: 4.74 µM
TGI [21]: > 100 µM
GI50 [22]: 4.64 µM
TGI [22]: > 100 µM
GI50 [23]: 1.23 µM
TGI [23]: 7.15 µM
GI50 [24]: 1.39 µM
TGI [24]: > 100 µM
GI50 [25]: 4.89 µM
TGI [25]: 67.9 µM
GI50 [26]: 5.71 µM
TGI [26]: > 100 µM
GI50 [27]: 4.15 µM
TGI [27]: 74.9 µM
GI50 [28]: 5.2 µM
TGI [28]: > 100 µM
GI50 [29]: 6.58 µM
TGI [29]: > 100 µM
GI50 [31]: 7.13 µM
TGI [31]: 88.5 µM
GI50 [32]: 44.6 µM
TGI [32]: > 100 µM
GI50 [33]: 13.9 µM
TGI [33]: > 100 µM
GI50 [34]: 6.07 µM
TGI [34]: > 100 µM
GI50 [35]: 2.74 µM
TGI [35]: > 100 µM
GI50 [36]: 13.4 µM
TGI [36]: > 100 µM
GI50 [37]: 3.19 µM
TGI [37]: > 100 µM
GI50 [38]: 6.36 µM
TGI [38]: > 100 µM
GI50 [39]: 5.51 µM
TGI [39]: 36.7 µM
GI50 [40]: 9.82 µM
TGI [40]: > 100 µM
GI50 [41]: 5.53 µM
TGI [41]: 64.8 µM
GI50 [42]: 9.81 µM
TGI [42]: 73.3 µM
GI50 [43]: 5.33 µM
TGI [43]: 46.8 µM
GI50 [44]: 5.4 µM
TGI [44]: > 100 µM
GI50 [45]: 3.95 µM
TGI [45]: 50.7 µM
GI50 [46]: 1.59 µM
TGI [46]: 7.16 µM
GI50 [47]: 6.66 µM
TGI [47]: > 100 µM
GI50 [48]: 15.4 µM
TGI [48]: 84.5 µM
GI50 [49]: 0.916 µM
TGI [49]: 15.7 µM
GI50 [50]: 2.85 µM
TGI [50]: > 100 µM
GI50 [51]: 10.8 µM
TGI [51]: > 100 µM
GI50 [52]: 0.417 µM
TGI [52]: 3.52 µM
GI50 [53]: 2.41 µM
TGI [53]: 27.5 µM
GI50 [54]: 11.1 µM
TGI [54]: 80.3 µM
GI50 [55]: 7.8 µM
TGI [55]: > 100 µM
GI50 [56]: 4.14 µM
TGI [56]: > 100 µM
GI50 [57]: 2.09 µM
TGI [57]: 35.6 µM

Reference: PubChem BioAssay (NCI)
